Experimental data published in patent publication US11938136B2, “Compositions for treating spinal muscular atrophy” (Hoffmann-La Roche Inc., priority 2015, dated 2024).
Read-outs that look alike come from different tables or passages of the source.

Tests used:
SMN protein = SMN protein assay (HTRF) in SMA patient fibroblast cells; format: cell-based, human; conditions: SMA patient fibroblasts
Text: The term “EC1.5x concentration for SMN protein expression” (or “EC1.5x SMN protein”) is defined as that concentration of test compound that is effective in producing 1.5 times the amount of SMN protein in an SMA patient fibroblast cell compared to the amount produced from the vehicle control.
(A) SMN2 splicing in SMA Type 1 fibroblasts. (B) SMN protein in SMA Type 1 fibroblasts. (C) SMN protein in SMA Type 1 motor neurons. (D) SMN1 and SMN2 splicing in whole blood derived from HV. […] SMN splicing was assessed by RT-PCR, and SMN protein levels were assessed by homogenous time-resolved fluorescence (HTRF) in fibroblast lysates, and by immunostaining for SMN in motor neurons. Data represent means standard error (SEM) of 3 evaluations per data point and are expressed as fold change vs. untreated controls.
The SMN HTRF (homogeneous time resolved fluorescence) assay is used to quantify the level of SMN protein in SMA patient fibroblast cells treated with test compounds. […]
Cells are thawed and cultured in DMEM-10% FBS for 72 hours. Cells are trypsinized, counted and re-suspended to a concentration of 25,000 cells/mL in DMEM-10% FBS. […] Fluorescence for each well of the plate at 665 nm and 620 nm is measured on an EnVision multilabel plate reader (Perkin-Elmer). […]

SMNΔ7 mice = assay: Survival and body weight of SMNΔ7 mice; format: in vivo, mouse
Description: FIG. 3. in vivo Effects of treatment SMNΔ7 mice with 7-(4,7-diazaspiro[2.5]octan-7-yl)-2-(2,8-dimethylimidazo[1,2-b]pyridazin-6-yl)pyrido[1,2-a]pyrimidin-4-one (Example 20). SMNΔ7 mice were treated with the compound of Example 20 from P3 onwards and animal survival (A) and body weight (B) were assessed daily until P100. Data represent means SEM of 10-12 mice per group. HET=heterozygous littermates.
Functional benefits were assessed in the severe and mild SMA mouse models. SMNΔ7 mice were treated from P3 to P23 once daily by IP injection of vehicle or the compound of Example 20, and from P24 onwards once daily by oral gavage. During the treatment period, body weight and animal survival were monitored. Over the 100-day observation period, only two heterozygous littermates died. In contrast, all vehicle-treated mice died before P21 with a median survival time (MST) of 10.5 days.

[1] = tested on: splicing events and expression levels of genes; assay: Transcriptional profiling analysis; format: cell-based
Text: The specific function of STRN3, SLC25A17, and GGCT and consequences of their dysregulation have not been elucidated so far. These three genes are also consistently found to be affected at the higher dose (5-fold higher than the EC90), a dose used in order to illustrate the maximum effect of this compound. Splicing events of 11 genes, including the genes FoxM1 and MADD, were affected at the higher dose but not by the lower dose. FoxM1 and MADD have been described as being involved in cell cycle regulation and apoptosis, respectively.

human SMN2 pre-mRNA = assay: SMN2 splicing in SMA Type 1 fibroblasts (RT-PCR); format: cell-based; conditions: Fibroblast, 24 hours
Description: (A) SMN2 splicing in SMA Type 1 fibroblasts. (B) SMN protein in SMA Type 1 fibroblasts. (C) SMN protein in SMA Type 1 motor neurons. (D) SMN1 and SMN2 splicing in whole blood derived from HV. Fibroblasts from SMA Type 1 patients were cultured for 24 hours (A) or 48 hours (B); motor neurons from SMA Type 1 patient iPSCs (induced Pluripotent Stem Cells) were cultured for 72 hours (C) and whole blood cells from healthy volunteers (HV) for 4 hours (D) in the presence of the compound of Example 20. SMN splicing was assessed by RT-PCR, and SMN protein levels were assessed by homogenous time-resolved fluorescence (HTRF) in fibroblast lysates, and by immunostaining for SMN in motor neurons. Data represent means standard error (SEM) of 3 evaluations per data point and are expressed as fold change vs. untreated controls.
The compound of Example 20 is an orally available small molecule SMN2 splicing modifier for the treatment of SMA. It has been found, that the compound of Example 20 effectively corrects the dysfunctional splicing of the human SMN2 pre-mRNA in cultured patient cells (SMA Type 1 fibroblasts) by shifting the balance of the alternative splicing reaction completely towards the inclusion of SMN2 exon 7 and the production of the full-length mRNA (FIG. 1A: EC50 29±8 nM for FL, 12±1 nM for Δ7 mRNA). […] EC1.5× was 4.7±0.7 nM and the maximum induction was 20-fold.

## Cc1cn2nc(-c3cc(=O)n4cc(N5CCNC6(CC6)C5)ccc4n3)cc(C)c2n1 [Example 20, 7-(4,7-diazaspiro[2.5]octan-7-yl)-2-(2,8-dimethylimidazo[1,2-b]pyridazin-6-yl)pyrido[1,2-a]pyrimidin-4-one]
SMN protein
  maximal increase in SMN protein above untreated cells: 60-80%
SMNΔ7 mice; high dose
  recovery in body weight gain as compared to heterozygous littermates: 85%
SMNΔ7 mice; high dose: 3 mg/kg IP through P23 and 10 mg/kg PO thereafter
  animals surviving up to P100: 73%
SMNΔ7 mice; low dose
  correction of impaired body weight increase: only mildly corrected
SMNΔ7 mice; mid dose
  recovery in body weight gain as compared to heterozygous littermates: 71%
SMNΔ7 mice; mid dose: 0.3 mg/kg IP through P23 and 1 mg/kg PO thereafter
  animals surviving up to P100: 80%
SMNΔ7 mice; mid/high dose
  recovery in body weight gain as compared to heterozygous littermates: 82%
SMNΔ7 mice; mid/high dose: 1 mg/kg IP through P23 and 3 mg/kg PO thereafter
  animals surviving up to P100: 82%
[1]; 121 nM dose
  number of genes whose expression levels were changed (p<0.01): 0
[1]; 121 nM, compared to control
  genes whose splicing events were affected: STRN3, SLC25A17 and GGCT
[1]; higher dose, 5-fold higher than the EC90, including FoxM1 and MADD
  number of genes whose splicing events were affected at the higher dose but not by the lower dose: 11
[1]; read-out: EC90 (therapeutically relevant concentration)
  EC90: 121 nM
Human SMN2 pre-mRNA; read-out: EC50 for FL SMN2 mRNA
  EC50: 29 ± 8 nM
Human SMN2 pre-mRNA; read-out: EC50 for Δ7 SMN2 mRNA
  EC50: 12 ± 1 nM
